Here are results for 11 compounds from patent US9919998B2, “Antibacterial agents: Nα-aroyl-N-aryl-phenylalaninamides” (priority 2014, dated 2018).

≈ marks a conversion by molar mass, not a printed value.

For series [1], the system named is Mycobacterium tuberculosis H37Rv. The experiment in a line: Microplate Alamar Blue assay (MABA) MIC, M. tuberculosis. Type of series: cell-based. As to conditions: read-out: MIC Mycobacterium tuberculosis H37Rv. From the text:
(§1) Minimal inhibitory concentrations (MICs) in Mycobacterium tuberculosis H37Rv and Mycobacterium avium ATCC 25291 were quantified using microplate Alamar Blue assays as described (MABA; [Collins, L. & Franzblau, S. (1997) Microplate Alamar Blue assay versus BACTEC 460 system for high-throughput screening of compounds against Mycobacterium tuberculosis and Mycobacterium avium. Antimicrob. Agents Chemother. 41, 1004-1009]).

In series [2] the test system is Mycobacterium avium ATCC 25291. The experiment in a line: Microplate Alamar Blue assay (MABA) MIC, M. avium. Type of series: cell-based. The settings on record: ATCC25291, M. avium ATCC 25291.
Source text: as §1

The test system of series [3] is Mycobacterium smegmatis ATCC 19420. Nature of the series: Broth microdilution MIC, M. smegmatis. Type of series: cell-based. As to conditions: Mycolicibacterium smegmatis, ATCC19420, M. smegmatis ATCC 19420; read-out: MIC Mycobacterium smegmatis ATCC 19420. The source says:
(§2) MICs in Mycobacterium smegmatis ATCC 19420 and Mycobacterium smegmatis ATCC 19420 derivatives were quantified using broth microdilution assays as described [Clinical and Laboratory Standards Institute (CLSI/NCCLS) (2009) Methods for Dilution Antimicrobial Susceptibility Tests for Bacteria That Grow Aerobically; Approved Standard, Eighth Edition. CLIS Document M07-A8 (CLIS, Wayne Pa.)].

Series [4] deals with rifampin-resistant mutants, derivatives of M. smegmatis ATCC19420. Nature of the series: MICs in rifampin-resistant mutants (cross-resistance levels). Format: cell-based, Mycobacterium smegmatis.
Source text: as §2

In series [5] the test system is Vero E6 ATCC CRL1586 cells. The experiment in a line: Mammalian-cell cytotoxicity, minimal cytotoxic concentration (CellTiter96). Format: cell-based. Here is the method:
Minimal cytotoxic concentrations (MCCs) against mammalian cells in culture were determined using Vero E6 ATCC CRL1586 cells and the CellTiter96 assay kit (Promega, Inc.). […]

Turning to `COc1ccccc1NC(=O)C(Cc1ccccc1)NC(=O)c1ccccc1` (stereo not shown) [I-17], the minimal inhibitory concentration (MIC) was found to be 3.13 mg/L (≈ 8.36 µM) in series [1], 6.25 mg/L (≈ 16.7 µM) in series [2] and 0.39 mg/L (≈ 1.04 µM) in series [3]. Further, the “cross-resistance of rifampin-resistant mutants to the compound” value (“cross-resistance” for short) in series [4] was “No rifampin-resistant mutant was found to exhibit cross-resistance”. For the same compound, in series [5], the “MCC mammalian cells Vero E6 ATCC CRL1586” value is above 37 µg/mL.

For the compound `COc1ccccc1C(=O)NC(Cc1ccccc1)C(=O)Nc1ccccc1C` (stereo not shown) [I-25], the minimal inhibitory concentration (MIC) in series [1] is above 50 mg/L; in series [3], 6.25 mg/L (≈ 16.1 µM). Further, the “cross-resistance” value in series [4] is listed as “No rifampin-resistant mutant was found to exhibit cross-resistance”. In addition, in series [5], the “MCC mammalian cells Vero E6 ATCC CRL1586” value amounted to 57 µg/mL.

Turning to `CCCOc1ccccc1NC(=O)C(Cc1ccccc1)NC(=O)c1ccccc1` (stereo not shown) [I-39], the MIC in series [1] was 6.25 mg/L (≈ 15.5 µM); in series [2] it was above 50 mg/L; in series [3] it was 0.78 mg/L (≈ 1.94 µM). Further, the “cross-resistance” value in series [4] was “No rifampin-resistant mutant was found to exhibit cross-resistance”. The “MCC mammalian cells Vero E6 ATCC CRL1586” value in series [5] turned out to be 20 µg/mL.

Take `Cc1ccc(Br)cc1NC(=O)C(Cc1ccccc1)NC(=O)c1ccccc1` (stereo not shown) [I-97]: the MIC in series [1] was 25 mg/L (≈ 57.2 µM); in series [2], above 50 mg/L; in series [3] it was 0.78 mg/L (≈ 1.78 µM). The “cross-resistance” value in series [4] is listed as “No rifampin-resistant mutant was found to exhibit cross-resistance”.

Regarding `Cc1ccccc1NC(=O)C(Cc1ccccc1)NC(=O)c1ccccc1Br` (stereo not shown) [I-102], the MIC in series [1] is above 50 mg/L; in series [3] it was 3.12 mg/L (≈ 7.15 µM). For the same compound, in series [4], the “cross-resistance” value is listed as “No rifampin-resistant mutant was found to exhibit cross-resistance”. Moreover, the “MCC mammalian cells Vero E6 ATCC CRL1586” value in series [5] amounted to 29 µg/mL.

Turning to `Cc1ccccc1NC(=O)C(Cc1ccc(OC(=O)c2ccccc2)cc1)NC(=O)c1ccccc1` (stereo not shown) [I-236, 4-(2-benzamido-3-oxo-3-(o-tolylamino)propyl)phenyl benzoate], the MIC turned out to be 25 mg/L (≈ 52.2 µM) in series [1] and 0.39 mg/L (≈ 0.815 µM) in series [3]. The “cross-resistance” value in series [4] is reported as “No rifampin-resistant mutant was found to exhibit cross-resistance”. For the same compound, the “MCC mammalian cells Vero E6 ATCC CRL1586” value in series [5] was above 48 µg/mL.

With `Cc1ccccc1NC(=O)C(Cc1ccccc1)NC(=O)c1cccnc1` (stereo not shown) [II-13], the MIC was above 50 mg/L in series [1] and 6.25 mg/L (≈ 17.4 µM) in series [3]. The “cross-resistance” value in series [4] is listed as “No rifampin-resistant mutant was found to exhibit cross-resistance”. The “MCC mammalian cells Vero E6 ATCC CRL1586” value in series [5] was above 36 µg/mL.

For the compound `O=C(NC(Cc1ccccc1)C(=O)Nc1cccc2nc[nH]c12)c1ccccc1F` (stereo not shown) [IX-280, N-(1-((1H-benzo[d]imidazol-7-yl)amino)-1-oxo-3-phenylpropan-2-yl)-2-fluorobenzamide], the results for the MIC in series [1], in series [2] and in series [3] were 12.5 mg/L (≈ 31.1 µM), 25 mg/L (≈ 62.1 µM) and 1.56 mg/L (≈ 3.88 µM), respectively. For the same compound, the “MCC mammalian cells Vero E6 ATCC CRL1586” value in series [5] worked out at 78 µg/mL.

As to `Cc1ccccc1C(=O)NC(Cc1ccccc1)C(=O)Nc1cccc2nc[nH]c12` (stereo not shown) [IX-281, N-(1-((1H-benzo[d]imidazol-7-yl)amino)-1-oxo-3-phenylpropan-2-yl)-2-methylbenzamide], the MIC in series [1] worked out at 12.5 mg/L (≈ 31.4 µM); in series [2], 12.5 mg/L (≈ 31.4 µM); in series [3] it was 0.78 mg/L (≈ 1.96 µM). Besides, in series [5], the “MCC mammalian cells Vero E6 ATCC CRL1586” value is 92 µg/mL.

Consider `Cc1ccccc1C(=O)NC(Cc1ccccc1)C(=O)Nc1cccc2c1cnn2C` (stereo not shown) [IX-297, 2-methyl-N-(1-((1-methyl-1H-indazol-4-yl)amino)-1-oxo-3-phenyl-propan-2-yl)benzamide], for which the minimal inhibitory concentration (MIC) was 12.5 mg/L (≈ 30.3 µM) in series [1], 12.5 mg/L (≈ 30.3 µM) in series [2] and 0.78 mg/L (≈ 1.89 µM) in series [3]. For the same compound, the “MCC mammalian cells Vero E6 ATCC CRL1586” value in series [5] is above 100 µg/mL.

For `CC(=O)N1CCCN(c2ccc(F)cc2NC(=O)C(Cc2ccccc2)NC(=O)c2ccccc2F)CC1` (stereo not shown) [IX-319, N-(1-((2-(4-acetyl-1,4-diazepan-1-yl)-5-fluorophenyl)amino)-1-oxo-3-phenylpropan-2-yl)-2-fluorobenzamide], the MIC in series [1] is 3.12 mg/L (≈ 6 µM); in series [2], 6.25 mg/L (≈ 12 µM); in series [3], 0.39 mg/L (≈ 0.749 µM). For the same compound, the “MCC mammalian cells Vero E6 ATCC CRL1586” value in series [5] was above 100 µg/mL.
